Test results from PMC10674987, “Sweet Cherry Extract as Permeation Enhancer of Tyrosine Kinase Inhibitors: A Promising Prospective for Future Oral Anticancer Therapies” (Pharmaceuticals, 2023).
Like-named read-outs stand apart in the source and are kept apart here.

What was measured:
Caco-2 monolayer = test: Bidirectional permeability in Caco-2 cells in absence and presence of SCE; assay type: in vitro ADME, human; details: for Change of Papp A-B in presence of SCE vs Free / Change of Papp B-A in presence of SCE vs Free / Change of efflux ratio in presence of SCE vs Free: +SCE 1 mg/mL vs Free
Procedure: (§1) Caco-2 cells were seeded at a density of 2 × 10^4 on Transwell supports (0.4 µm pore polycarbonate membrane, 6.5 mm) and incubated overnight in a controlled atmosphere of 37 °C and 5% of CO2. The following day, the medium was changed to remove floating cells and fresh pre-warmed DMEM 20% was added (300 µL in the apical compartment and 1200 µL in the basal one). Cells were cultured for approximately 18–21 days in order to ensure that the cellular monolayers differentiated and many transport proteins and brush border hydrolases were expressed. Media were changed every 2–3 days.
(§2) For permeability studies, stock solutions of compounds were prepared by solubilizing 1.0 mg of accurately weighed powder with dimethyl sulfoxide (DMSO) and conserved at −20 °C. Immediately prior to the experiments, working solutions (WS) were prepared by diluting the stock solutions with pre-warmed HBSS to the final concentration of 10 µM. The final concentration of DMSO used never exceeded 0.1% v/v. The assays were performed in both the absorptive (from apical-to-basolateral compartment (A-B)) and the secretory direction (from basolateral-to-apical compartment (B-A)), both in the absence (Free) and presence of sweet cherry extract (+SCE [1 mg/mL]) diluted in HBSS. The final volumes used for the experiment were 300 µL in the apical compartment and 1200 µL in the basolateral one. Plates were incubated at 37 °C and maintained under gentle shaking (500 rpm) to reduce the effect of the unstirred water layer. At selected time points (T0–0.25–0.5–1–2 h-TEND for the A-B studies; T0–2 h–TEND for the B-A studies), samples (200 µL) were collected from the receiving compartments (from the basolateral compartment for the A-B assay; from the apical one for the B-A study) and replaced with the same volume of HBSS. The HPLC-UV/MS method was developed to quantify the amount of drug transferred across the cellular monolayer, and permeability (Papp, 10^−6 cm/s) and efflux ratio (ER) were calculated according to the following equations:Papp = (dQ/dt) × 1/(A × C0)(5) where dQ/dt is the steady-state flux (µmol s^−1), A is the area of the filter (cm^2), and C0 is the initial concentration in the donor compartment (µM). ER = (Papp B-A)/(Papp A-B)(6)
(§3) Chromatographic analyses were carried out using an Agilent 1260 Infinity HPLC-DAD system connected to an Agilent MSD 6130 system (Agilent Technologies, Palo Alto, CA, USA). At room temperature, a Kinetex C18-100 Å column (150 mm 4.6 mm, purchased from Phenomenex, Torrance, CA, USA) with a 5 µm particle size and gradient elution with a binary solution (eluent A: H2O, eluent B: ACN, both acidified with 0.1% v/v formic acid) was for the chromatographic separation. Analyses started with 5% B (from t = 0 to t = 1 min), then increased to 95% (from t = 1 to t = 10 min), then maintained at 95% (from t = 10 to t = 15 min), and finally returned to […] in 1.0 min. The volume injected was 10 µL, and the flow rate 600 µL/min. UV detection was monitored at 254 nm, and spectra were collected in both the positive and negative modes within the scan range of m/z 100–1500.

[1] = as above; assay type: in vitro ADME, human; details: human, 10 µM compound; for Papp A→B at 2 h, 10 µM: apical to basolateral; for Papp B→A at 2 h, 10 µM: basolateral to apical; for efflux ratio at 2 h, 10 µM: read-out: Efflux ratio (ER) (Papp B-A/Papp A-B)
Procedure: as §1, §2, §3

[2] = design: method as in earlier work; details: in humans; EMA reports; cited from earlier work
Caco-2 cells = test: Cell viability assay (MTT) on Caco-2 cells; assay type: cell-based, human; details: 2 h
Procedure: (§4) Cells were sub-cultured using a 1× trypsin/EDTA solution and then passed every 3–4 days at appropriate ratios (typically 1:3, 1:6, 1:12). […] After 2 h of treatment, solutions were aspirated from the wells, and the cells were washed with pre-warmed PBS. […] Furthermore, it was mandatory to identify the most suitable drug concentration that would avoid cytotoxic effects on Caco-2 cells (a condition that may bias the permeability study) and that would allow the optimal chromatographic response when analyzing the samples obtained. Therefore, cells were exposed to increasing concentrations of drugs (1–10–100 µM) for 2 h. […] In order to fully reproduce the conditions of the permeability studies and assess the possible induction of irreversible cytotoxic effects by SCE or drugs, cell viability was also checked after a further 24 h of incubation in free medium (2 h + 24 h). Cell viability was assessed as above described.

[3] = Cell viability assay (MTT) on Caco-2 cells; assay type: cell-based, human; details: human, Caco-2 cells, 2 h + 24 h fresh medium
Procedure: as §4

[4] = human liver microsomes; previously published; cited from earlier work
[5] = previously published; cited from earlier work
[6] = known from the literature; cited from earlier work
[7] = known from literature; cited from earlier work

Change of Papp A-B in presence of SCE vs Free (Caco-2 monolayer)	Change of Papp B-A in presence of SCE vs Free (Caco-2 monolayer)	Change of efflux ratio in presence of SCE vs Free (Caco-2 monolayer)	Papp A→B at 2 h, 10 µM ([1]; Caco-2, +SCE [1 mg/mL])	Papp B→A at 2 h, 10 µM ([1]; Caco-2, +SCE [1 mg/mL])	efflux ratio at 2 h, 10 µM ([1]; Caco-2, +SCE [1 mg/mL])	Papp A→B at 2 h, 10 µM ([1]; Caco-2, Free)	Papp B→A at 2 h, 10 µM ([1]; Caco-2, Free)	efflux ratio at 2 h, 10 µM ([1]; Caco-2, Free)	SMILES	Metabolic Stability [4]	PAMPA Papp [5]	PAMPA membrane retention (MR %) [5]	other results
slight increase	did not show relevant changes	reduced	2.41 ± 0.12 ×10⁻⁶ cm/s	31.1 ± 0.342 ×10⁻⁶ cm/s	12.9 ± 0.786	2.02 ± 0.103 ×10⁻⁶ cm/s	36.9 ± 2.95 ×10⁻⁶ cm/s	18.2 ± 0.529	Cc1nc(Nc2ncc(C(=O)Nc3c(C)cccc3Cl)s2)cc(N2CCN(CCO)CC2)n1 [Dasatinib, dasatinib, reference compound]				Bioavailability [2]: 15.2%; Cell viability (Caco-2 cells; 1 µM, vs untreated control): no significant signs of toxicity; viability at 10 µM ([3]; 10 µM): 90 to 100%; viability at 100 µM ([3]; 100 µM): 70 to 80%
only a slight improvement	significant reduction	almost halved	1.54 ± 0.095 ×10⁻⁶ cm/s	5.99 ± 0.286 ×10⁻⁶ cm/s	3.88 ± 0.054	1.25 ± 0.122 ×10⁻⁶ cm/s	8.04 ± 0.183 ×10⁻⁶ cm/s	6.46 ± 0.486	CC(Cn1ncc2c(Nc3cc(O)ccc3Cl)nc(SCCN3CCOCC3)nc21)c1ccccc1 (stereo not drawn) [Cpd 5]	97.9%	over 10 10^−6 cm/s	6.6%	Caco-2 Papp A-B lower than PAMPA Papp (Caco-2 monolayer; Free): ~10 fold
doubled	did not show relevant changes	almost halved	93.1 ± 3.84 ×10⁻⁶ cm/s	37.2 ± 4.73 ×10⁻⁶ cm/s	0.399 ± 0.034	41.3 ± 4.28 ×10⁻⁶ cm/s	33.6 ± 0.967 ×10⁻⁶ cm/s		CC(C)NCC(O)COc1cccc2ccccc12 (stereo not drawn) [Propranolol, propranolol, reference compound]				Oral bioavailability / oral absorption (of an oral dose) [6]: around 90%; Papp [7]: higher than 10 × 10^−6 cm/s; Cell viability (Caco-2 cells; 1 µM, vs untreated control): no significant signs of toxicity; Cell viability (Caco-2 cells; 100 µM): high percentages of viable cells
about three and four times	more interesting implementation	almost halved	14.9 ± 1.86 ×10⁻⁶ cm/s	51.45 ± 0.118 ×10⁻⁶ cm/s	3.48 ± 0.445	3.32 ± 0.041 ×10⁻⁶ cm/s	19 ± 2.15 ×10⁻⁶ cm/s	5.71 ± 0.578	CC(Cn1ncc2c(Nc3cc(O)ccc3Cl)nc(NCCO)nc21)c1ccccc1 (stereo not drawn) [Cpd 6]	97.9%	lower than 1 10^−6 cm/s	4.0%	

Further lines, the molecule ahead of its results:

SMILES	Change of Papp A-B in presence of SCE vs Free (Caco-2 monolayer)	Change of Papp B-A in presence of SCE vs Free (Caco-2 monolayer)	Change of efflux ratio in presence of SCE vs Free (Caco-2 monolayer)	Papp A→B at 2 h, 10 µM ([1]; Caco-2, +SCE [1 mg/mL])	Papp B→A at 2 h, 10 µM ([1]; Caco-2, +SCE [1 mg/mL])	efflux ratio at 2 h, 10 µM ([1]; Caco-2, +SCE [1 mg/mL])	Papp A→B at 2 h, 10 µM ([1]; Caco-2, Free)	Papp B→A at 2 h, 10 µM ([1]; Caco-2, Free)	efflux ratio at 2 h, 10 µM ([1]; Caco-2, Free)	Metabolic Stability [4]	PAMPA Papp [5]	PAMPA membrane retention (MR %) [5]	other results
CC(Cn1ncc2c(Nc3cccc(O)c3)nc(NCCO)nc21)c1ccccc1 (stereo not drawn) [Cpd 4]	about three and four times	more interesting implementation	almost halved	16.9 ± 0.743 ×10⁻⁶ cm/s	53.3 ± 1.8 ×10⁻⁶ cm/s	3.16 ± 0.245	5.11 ± 0.385 ×10⁻⁶ cm/s	34.5 ± 0.817 ×10⁻⁶ cm/s	6.77 ± 0.351	99.4%	lower than 1 10^−6 cm/s	1%	
CSc1nc(NCCc2ccccc2)c2cnn(CC(Cl)c3ccccc3)c2n1 (stereo not drawn) [Cpd 2]	almost doubled	significant reduction	nine-fold reduction	0.224 ± 0.009 ×10⁻⁶ cm/s	2.3 ± 0.279 ×10⁻⁶ cm/s	10.2 ± 0.837		10.4 ± 0.363 ×10⁻⁶ cm/s	97.3 ± 4.49	96.6%	3.2 10^−6 cm/s	42.7%	
Oc1ccc(Cl)c(Nc2ncnc3c2cnn3CC(Cl)c2ccccc2)c1 (stereo not drawn) [Cpd 3]	~10 fold	more interesting implementation	almost halved	16.3 ± 0.537 ×10⁻⁶ cm/s	32.5 ± 0.784 ×10⁻⁶ cm/s	2 ± 0.114	1.68 ± 0.061 ×10⁻⁶ cm/s	4.74 ± 0.097 ×10⁻⁶ cm/s	~3	86.3%	4.3 (-) 10^−6 cm/s		
Fc1ccc(C(Cl)Cn2ncc3c(NCc4ccccc4)ncnc32)cc1 (stereo not drawn) [Cpd 1]	about three and four times	more interesting implementation	almost halved	16.167 ± 0.014 ×10⁻⁶ cm/s	26.8 ± 3.68 ×10⁻⁶ cm/s	1.66 ± 0.226	4.943 ± 0.044 ×10⁻⁶ cm/s	15.1 ± 1.57 ×10⁻⁶ cm/s	~3	84.2%		9.2%	melting point: 143 to 144 °C
